Data on two compounds can be found in patent US20260184692A1, “HETEROCYCLIC COMPOUNDS, PREPARATION METHODS AND USES THEREOF” (InventisBio Co., Ltd., priority 2022, published 2026).

Data set [1] concerns OVCAR3 Cells. Nature of the data set: OVCAR3 Cell Viability Assay (CellTiter-Glo). The data set is classed as cell-based. The following applies: Homo sapiens, OVCAR-3, 144 h, 6 days incubation, read-out: OVCAR3 CTG IC50. The method in brief:
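Cells seeded at 2000/well in RPMI1640 + 20% FBS + insulin, treated next day with serially diluted compound for 6 days at 37 °C, 5% CO2 (0.5% DMSO final). Viability by CellTiter-Glo luminescence; inhibition normalised to DMSO and blank controls, IC50 from four-parameter fit.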

Data set [2] concerns the target T1, PXR (Homo sapiens, UniProt O75469).
T1 construct: expressed in transfected cells; host or cells: DPX2 cells
T1 sequence (O75469 1-434): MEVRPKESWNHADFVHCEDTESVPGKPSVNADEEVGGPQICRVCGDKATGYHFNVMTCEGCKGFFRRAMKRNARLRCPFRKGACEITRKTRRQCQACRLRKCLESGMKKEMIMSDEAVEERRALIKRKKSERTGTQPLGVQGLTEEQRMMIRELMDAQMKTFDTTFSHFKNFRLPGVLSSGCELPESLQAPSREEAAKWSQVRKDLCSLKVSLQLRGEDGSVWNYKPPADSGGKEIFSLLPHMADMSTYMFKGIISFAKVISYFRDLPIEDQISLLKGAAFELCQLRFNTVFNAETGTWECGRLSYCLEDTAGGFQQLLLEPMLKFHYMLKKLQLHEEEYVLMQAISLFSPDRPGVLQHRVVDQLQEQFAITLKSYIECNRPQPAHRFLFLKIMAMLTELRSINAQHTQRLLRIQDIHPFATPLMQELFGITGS
Description: In Vitro PXR Activation Study (DPX2 cells). The data set is classed as cell-based. The following applies: concentration 30 uM, 48 h treatment. On the procedure:
Prepared the culture medium for DPX2 cells using DPX2 culturing medium supplemented with 10% FBS. Cultivated DPX2 cells in T-75 flasks in a cell culture incubator set at 37 C, 5% CO2, 95% relative humidity. Allowed cells to reach 80-90% confluence before detaching and splitting. Rinsed cultivated cells in T-75 flasks with 5 mL PBS. Aspirate off, add 1.5 mL trypsin, and incubated at 37° C. for approximately 5 minutes or until the cells detach and float. Inactivated trypsin by adding excess serum containing medium. Removed cell suspension to a conical tube and pellet cells by centrifugation at 150×g for 5 minutes. Resuspended cells in seeding medium at a density of 3.2×10^5 cells/mL. Transferred 25 μL to each well of 384-well cell culture plate. Placed plate(s) in incubator and incubate at 37° C. for 24 hours.
Prepared stock solutions of test compounds and inducers in DMSO. Final concentration of DMSO in the treatment group should be 0.1%. Removed the plates from the incubator and directly add 25 μL of the negative control, inducers, or test article solutions. Returned plates to the incubator for 48 hours. […] After 48 h of treatment, the cultures were ready for the determination of quantitation of PXR activation.
The fold-activation mRNA level was determined by the equation: […]

Data set [3] concerns the target T2, P450 2C9 (Homo sapiens, UniProt P11712).
T2 construct: incubation with known industry-accepted CYP450 substrates, test articles and microsomes (HLM); from tissue; host or cells: liver microsomes (HLM)
Description: In Vitro Cytochrome P450 Inhibition Study. The data set is classed as in vitro ADME. Conditions: human liver microsomes (HLM), test compound 0.137 μM to 10 μM, 10 min at 37 °C. On the procedure: CYP inhibition was evaluated by monitoring corresponding metabolite decrease after incubation with known industry-accepted CYP450 substrates, test articles and microsomes (HLM).
Eight reaction wells with 30 μL of a solution containing 100 mM potassium phosphate, pH 7.4 and 1:3 serial dilutions of the test compound were prepared along with eight wells of 1:3 serial dilutions of Sulfaphenazole (a positive control inhibitor). The assay plates were pre-warmed after 15 μL of probe substrate was added into appropriate wells. Then the reactions were initiated by adding 15 μL of a pre-warmed 8 mM NADPH solution resulting in a final NADPH concentration of 2 mM. The concentrations of test compound ranged from 0.137 μM to 10 μM. A zero time-point control reaction was prepared by adding 135 μL acetonitrile (ACN) containing tolbutamide (200 ng/mL) as internal standard (IS) to 30 μL. of the reaction solution to inactivate the enzymes before adding the probe substrate. A control reaction with no inhibitor was also prepared. After a suitable incubation at 37° C., 10 min, the reactions were terminated by the addition of 135 μL ACN containing IS. The reactions were prepared and analyzed for the metabolite forms of the probe substrate using LC-MS/MS.
For orientation: Microsomes from liver hold many membrane-bound enzymes, among them those of drug oxidation.

Data set [4] can be described thus: Human Plasma Protein Binding Assay (dialysis). The data set is classed as in vitro ADME. Conditions: 1 μM compound, dialysis 6 hr at 37 °C. On the procedure: The plasma protein binding of compounds in human plasma was determined using a dialysis method. The dialysis membrane strips were prepared by soaking them in ultra-pure water for about 1 hr at room temperature, followed by separation and soaking in ethanol:water (20:80 v:v) for about 20 min, and a final rinse with ultra-pure water. Prior to use, the membranes were rinsed and soaked for another 20 min in ultra-pure water.
The blank plasma samples were thawed, centrifuged and verified its pH values. Only the plasma with pH between 7.0-8.0 was used in the experiment. The final concentration of compound in the spiked plasma is 1 μM, with final DMSO<=1%. All samples were prepared in triplicates. The time zero (T0) samples was used for determining the recovery of the compound of interest after dialysis. It was prepared in the same way as other dialysis samples except it was stored at 2-8° C. before LC-MS/MS analysis.
The other spiked plasma samples were loaded onto the dialysis device and incubated at and 37±1° C. with 5% CO2 for 6 hr. At the end of the dialysis, aliquots of samples from the plasma and buffer sides of the dialysis device were taken and processed for LC-MS/MS analysis.
The % Unbound, % Bound, and % Recovery of the compounds were calculated from the peak area ratios of the analyte and internal standard in the plasma and buffer samples as shown in the following equations:
[formula] [formula] [formula] • where [F] is the peak area ratio of analyte/internal standard on the buffer (receiver) side of the membrane; [T] is the peak area ratio of analyte/internal standard on the plasma (donor) side of the membrane; [T0] is the peak area ratio of analyte/internal standard in the plasma sample at time zero.

The nature of data set [5]: Mouse PK Assay. The data set is classed as in vivo. Conditions: plasma, male BALB/c mouse.
Data set [6] has as its system HCC1806 Cells. Nature of the data set: HCC1806 Cell Viability Assay (CellTiter-Glo). The data set is classed as cell-based. The following applies: Homo sapiens, 144 h, 6 days incubation, read-out: HCC1806 CTG IC50. On the procedure: HCC1806 Cells (ATCC, Cat #CRL-2335) were seeded at a density of 500 cells/well in a 96-well clear bottom plate (Greiner, Cat #655098) in 100 μL of complete media (RPMI1640+10% FBS). One hundred microliter of complete media was added into the blank wells (column 1) for low control. Cells were allowed to adhere to the plate overnight in the incubator at 37° C., 5% CO2. On the following day, 0.5 μL of serially-diluted compounds were added to the cells (columns 2-10) and incubated for 6 days at 37° C., 5% CO2 (final 0.5% DMSO concentration); 0.5 μL of DMSO solution was added into the wells (column 11) for high control. Cell viability was detected according to the CellTiter-Glo Luminescent Cell Viability Assay Kit (Promega, Cat #G7573). Luminescence was recorded on the Tecan Spark plate reader. Inhibition rate (IR) of the tested compounds was determined by the following formula: IR (%)=(1−(RLUcompound−RLUlow control)/(RLUhigh control−RLUlow control))×100%. The IC50 value was calculated using the non-linear regression equation: Y=Bottom+(Top−Bottom)/(1+10^((Log IC50−X)×HillSlope)), where X is Log of compound concentration, Y is percent inhibition (IR (%)), Top and Bottom are plateaus in same units as Y.

T2 sequence (P11712 whole entry): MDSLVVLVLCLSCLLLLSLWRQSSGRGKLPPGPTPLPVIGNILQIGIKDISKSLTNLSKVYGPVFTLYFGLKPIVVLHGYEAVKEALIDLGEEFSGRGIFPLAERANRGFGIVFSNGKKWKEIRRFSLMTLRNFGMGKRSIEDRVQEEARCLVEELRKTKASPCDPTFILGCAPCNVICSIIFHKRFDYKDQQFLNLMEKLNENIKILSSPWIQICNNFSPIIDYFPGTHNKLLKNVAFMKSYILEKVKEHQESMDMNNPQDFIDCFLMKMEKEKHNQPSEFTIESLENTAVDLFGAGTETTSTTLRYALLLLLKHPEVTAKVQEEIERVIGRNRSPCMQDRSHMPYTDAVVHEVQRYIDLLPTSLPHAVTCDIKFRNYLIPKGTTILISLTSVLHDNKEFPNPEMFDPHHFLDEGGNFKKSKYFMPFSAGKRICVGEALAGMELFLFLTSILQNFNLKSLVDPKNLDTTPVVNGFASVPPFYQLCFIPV

Consider `COc1ccc(N2CC3(CCC4(CC4)CC3)c3cc(NS(=O)(=O)CCO)ccc3C2=O)nc1N1CCC(F)(F)CC1` [Compound 133], for which the IC50 (usually the concentration needed to halve the response being measured) in data set [1] is less than 200 nM; in data set [3] it was more than 10 µM. Besides, the “Induction Fold” value in data set [2] is on record as 1.7x. In addition, the fraction unbound (in general, free concentration divided by total concentration) at 6 hr, 1 μM in data set [4] was determined as 0.001.

On to `N#Cc1ccc(N2CC3(CCC4(CC4)CC3)c3cc(NS(=O)(=O)CCO)ccc3C2=O)nc1N1CCC(F)(F)CC1` [Compound 27], for which, in data set [5] (IV), the mean residence time (MRT) (as a rule, the average time that molecules of a dose stay in the body) was 6.2 h. For the same compound, in data set [5] (single oral dose 5 mg/kg, read-out: PO T1/2 (converted)), the half-life was 222 min. The concentration for half-maximal inhibition (IC50) in data set [1] and in data set [6] was less than 200 nM throughout. The “Induction Fold” value in data set [2] amounted to 1.8x.
